The target in assay [1] is ROCK2 (Homo sapiens, UniProt O75116). Kind of assay: ROCK2 kinase IC50 assay (CISBIO HTRF KinEASE-STK S2 kit). The assay is classed as biochemical. As to conditions: incubated at room temperature for 2 hours. In outline: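 HTRF KinEASE-STK S2 format with recombinant ROCK2 (1.4 ng per well), STK-S2 substrate and ATP from 5× working solutions of 1.5 μM each, run 2 h at room temperature. Nine-point dilutions from 10000 nM top concentration; 665/615 nm emission ratio normalised to no-compound and no-kinase controls, curve-fitted for IC50.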
(TR-FRET usually uses a lanthanide donor and a delayed reading to cut background.)

Assay [2] deals with ROCK1 (Homo sapiens (Human), UniProt Q13464). Kind of assay: ROCK1 kinase IC50 assay (biological test method similar to the ROCK2 assay). The assay is classed as biochemical. A digest of the protocol: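 HTRF KinEASE-STK S2 assay with the STK-S2 biotinylated substrate and ATP, at 5× working solutions of 1.5 µM each. Kinase reaction with 9-point compound dilutions ran 2 h at room temperature, followed by 1 h streptavidin-XL665/Cryptate detection. The 665/615 nm ratio was normalised to no-compound and no-kinase wells, and IC50 was obtained by curve fitting.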

Where only a bound is given, the exact number is not on record here.

Sequence of ROCK1 (Q13464 whole entry, species assumed): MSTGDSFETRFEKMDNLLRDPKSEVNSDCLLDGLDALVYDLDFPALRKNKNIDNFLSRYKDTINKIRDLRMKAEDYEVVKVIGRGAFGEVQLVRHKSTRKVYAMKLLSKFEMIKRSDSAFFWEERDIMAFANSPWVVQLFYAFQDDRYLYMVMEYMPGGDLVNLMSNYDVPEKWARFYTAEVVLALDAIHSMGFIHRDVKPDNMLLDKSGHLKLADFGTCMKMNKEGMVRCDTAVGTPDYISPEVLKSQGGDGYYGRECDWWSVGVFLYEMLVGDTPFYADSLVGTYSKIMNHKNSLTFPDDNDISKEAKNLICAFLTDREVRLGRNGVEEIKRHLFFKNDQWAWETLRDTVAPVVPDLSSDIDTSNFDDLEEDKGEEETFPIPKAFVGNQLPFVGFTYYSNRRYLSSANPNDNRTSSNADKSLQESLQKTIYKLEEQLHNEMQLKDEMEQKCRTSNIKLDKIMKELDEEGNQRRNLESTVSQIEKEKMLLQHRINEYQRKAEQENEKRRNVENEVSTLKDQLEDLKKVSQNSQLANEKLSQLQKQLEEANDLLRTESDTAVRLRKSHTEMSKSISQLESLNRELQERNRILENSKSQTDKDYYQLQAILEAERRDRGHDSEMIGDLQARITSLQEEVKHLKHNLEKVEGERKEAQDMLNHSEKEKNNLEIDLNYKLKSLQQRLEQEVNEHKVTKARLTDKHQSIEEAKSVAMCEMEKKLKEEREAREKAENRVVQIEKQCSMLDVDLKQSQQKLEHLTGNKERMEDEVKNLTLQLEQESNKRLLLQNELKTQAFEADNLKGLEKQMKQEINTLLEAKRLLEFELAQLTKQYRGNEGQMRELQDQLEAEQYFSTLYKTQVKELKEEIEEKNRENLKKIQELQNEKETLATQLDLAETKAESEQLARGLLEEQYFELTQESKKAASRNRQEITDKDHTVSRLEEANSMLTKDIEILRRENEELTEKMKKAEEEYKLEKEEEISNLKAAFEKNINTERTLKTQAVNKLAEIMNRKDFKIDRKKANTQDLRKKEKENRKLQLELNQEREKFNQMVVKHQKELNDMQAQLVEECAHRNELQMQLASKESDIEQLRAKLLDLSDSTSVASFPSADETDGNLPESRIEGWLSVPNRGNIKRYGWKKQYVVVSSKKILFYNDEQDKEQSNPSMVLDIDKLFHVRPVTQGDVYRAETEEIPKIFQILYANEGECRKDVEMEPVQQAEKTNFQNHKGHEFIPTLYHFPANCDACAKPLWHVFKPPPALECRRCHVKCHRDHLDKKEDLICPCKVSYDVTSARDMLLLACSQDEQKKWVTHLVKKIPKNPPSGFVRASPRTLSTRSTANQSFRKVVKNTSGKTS

As to `O=C(C1CC(F)(F)C1)N1CCc2cc(-c3nccc(Nc4ccc5[nH]ncc5c4)n3)ccc2C1` [TDI01683, (6-(4-((1H-indazol-5-yl)amino)pyrimidin-2-yl)-3,4-dihydroisoquinolin-2(1H)-yl)(3,3-difluorocyclobutyl)methanone], the 50% inhibitory concentration (IC50) – broadly, the midpoint of a concentration-inhibition curve – in assay [1] is 360 nM; in assay [2] it was over 10000 nM.
The matching figures for `O=C(c1cc2ccc(-c3nccc(Nc4ccc(-c5cn[nH]c5)cc4)n3)cc2[nH]1)N1CC2C(C1)C2(F)F` (stereo not drawn) [TDI01490, (6-(4-((4-(1H-pyrazol-4-yl)phenyl)amino)pyrimidin-2-yl)-1H-indol-2-yl)(6,6-difluoro-3-azabicyclo[3.1.0]hexan-3-yl)methanone]: 81 nM and 2250 nM.
The matching figures for `O=C(Nc1ccncc1F)c1cc2ccc(-c3nccc(Nc4ccc5[nH]ncc5c4)n3)cc2[nH]1` [TDI01394, 6-(4-((1H-indazol-5-yl)amino)pyrimidin-2-yl)-N-(3-fluoropyridin-4-yl)-1H-indole-2-carboxamide]: 28 nM and over 10000 nM.
For `c1ccc2sc(-c3cc4ccc(-c5nccc(Nc6ccc7[nH]ncc7c6)n5)cc4[nH]3)nc2c1` [TDI01881, N-(2-(2-(benzo[d]thiazol-2-yl)-1H-indol-6-yl)pyrimidin-4-yl)-1H-indazol-5-amine], in that order: 161 nM and over 10000 nM.
With `Cn1c(-n2ccnc2)cc2ccc(-c3nccc(Nc4ccc(-c5cn[nH]c5)cc4)n3)cc21` [TDI01876B, 2-(2-(1H-imidazol-1-yl)-1-methyl-1H-indol-6-yl)-N-(4-(1H-pyrazol-4-yl)phenyl)pyrimidin-4-amine], the half-maximal inhibitory concentration (IC50) is 240 nM in assay [1] and over 10000 nM in assay [2].
As for `O=C(NC1CCCN(c2ccncc2)C1)c1cc2ccc(-c3nccc(Nc4ccc(-c5cn[nH]c5)cc4)n3)cc2[nH]1` (stereo not drawn) [TDI01882, 6-(4-((4-(1H-pyrazol-4-yl)phenyl)-amino)-pyrimidin-2-yl)-N-(1-(pyridin-4-yl)piperidin-3-yl)-1H-indole-2-carboxamide], the 50% inhibitory concentration (IC50) was found to be 8 nM in assay [1] and 139 nM in assay [2].
On to `COc1cc(Nc2ccnc(-c3ccc4cc(-c5nccs5)[nH]c4c3)n2)ccc1-c1cn[nH]c1` [TDI01912, N-(3-methoxy-4-(1H-pyrazol-4-yl)phenyl)-2-(2-(thiazol-2-yl)-1H-indol-6-yl)pyrimidin-4-amine], for which the results for the IC50 in assay [1] and in assay [2] were 44 nM and over 10000 nM, respectively.
For `O=C(NC1CC(F)C1)c1cc2ccc(-c3nc(Nc4ccc(-c5cn[nH]c5)cc4)c4sccc4n3)cc2[nH]1` (stereo not drawn) [TDI01487, 6-(4-((4-(1H-pyrazol-4-yl)phenyl)amino)thieno [3,2-d]pyrimidin-2-yl)-N-(3-fluorocyclobutyl)-1H-indole-2-carboxamide], in that order: 193 nM and 5040 nM.
On to `O=C(c1cc2ccc(-c3nccc(Nc4ccc(-c5cn[nH]c5)cc4)n3)cc2[nH]1)N1CCC2(CCN2)CC1` [TDI01464, (6-(4-((4-(1H-pyrazol-4-yl)phenyl)amino)pyrimidin-2-yl)-1H-indol-2-yl)(1,7-diazaspiro[3.5]nonan-7-yl)methanone], for which the figures for the 50% inhibitory concentration (IC50) in assay [1] and in assay [2] were 175 nM and 2280 nM, respectively.
The matching figures for `Cn1c(C(=O)N2CC(F)(F)C2)cc2ccc(-c3ncc(Cl)c(Nc4ccc(-c5cn[nH]c5)cc4)n3)cc21` [TDI01949, (6-(4-((4-(1H-pyrazol-4-yl)phenyl)amino)-5-chloropyrimidin-2-yl)-1-methyl-1H-indol-2-yl)(3,3-difluoroazetidin-1-yl)methanone]: 59 nM and over 10000 nM.
The matching figures for `CC(C)NC(=O)c1cc2ccc(-c3nc(Nc4ccc(-c5cn[nH]c5)cc4)c4ccccc4n3)cc2[nH]1` [TDI01862, 6-(4-((4-(1H-pyrazol-4-yl)phenyl)-amino)-quinazolin-2-yl)-N-isopropyl-1H-indole-2-carboxamide]: 382 nM and over 10000 nM.
With `CNC(=O)c1cc2ccc(-c3nc(Nc4ccc5[nH]ncc5c4)c4sccc4n3)cc2[nH]1` [TDI01405, 6-(4-((1H-indazol-5-yl)amino)-thieno[3,2-d]pyrimidin-2-yl)-N-methyl-1H-indole-2-carboxamide], the values for the IC50 in assay [1] and in assay [2] were 160 nM and 4060 nM, respectively.
`O=C(c1cc2ccc(-c3nccc(Nc4ccc(-c5cn[nH]c5)cc4)n3)cc2[nH]1)N1CC(F)C1` [TDI01455, (6-(4-((4-(1H-pyrazol-4-yl)phenyl)amino)pyrimidin-2-yl)-1H-indol-2-yl)(3-fluoroazetidin-1-yl)methanone]: the IC50 in assay [1] is 29 nM; in assay [2], over 10000 nM.
The matching figures for `O=C(c1cc2ccc(-c3ncc(F)c(Nc4ccc(-c5cn[nH]c5)cc4)n3)cc2s1)N1CC(F)(F)C1` [TDI01675, (6-(4-((4-(1H-pyrazol-4-yl)phenyl)-amino)-5-fluoro-pyrimidin-2-yl)benzo[b]-thiophen-2-yl)(3,3-difluoroazetidin-1-yl)methanone]: 84 nM and over 10000 nM.
The matching figures for `O=C(c1cc2ccc(-c3nccc(Nc4ccc(-c5cn[nH]c5)cc4)n3)cc2[nH]1)N1CCS(=O)(=O)CC1` [TDI01497, (6-(4-((4-(1H-pyrazol-4-yl)phenyl)amino)pyrimidin-2-yl)-1H-indol-2-yl)(1,1-dioxidothiomorpholino) methanone]: 319 nM and over 10000 nM.
For `O=C(c1cc2ccc(-c3nccc(Nc4ccc(-c5cn[nH]c5)cc4)n3)cc2[nH]1)N1CCC(F)(F)CC1` [TDI01485, (6-(4-((4-(1H-pyrazol-4-yl)phenyl)amino)pyrimidin-2-yl)-1H-indol-2-yl)(4,4-difluoropiperidin-1-yl)methanone], in that order: 276 nM and 3990 nM.
`Cn1c(C(=O)N2CCC(O)(C(F)(F)F)C2)cc2ccc(-c3nccc(Nc4ccc(-c5cn[nH]c5)cc4)n3)cc21` (stereo not drawn) [TDI01505, (6-(4-((4-(1H-pyrazol-4-yl)phenyl)amino)pyrimidin-2-yl)-1-methyl-1H-indol-2-yl) (3-hydroxy-3-(trifluoromethyl)pyrrolidin-1-yl)methanone]: the IC50 in assay [1] is 209 nM; in assay [2], 5670 nM.
As for `O=C(C1CC(F)(F)C1)N1Cc2ccc(-c3nc(Nc4ccc(-c5cn[nH]c5)cc4)c4cc[nH]c4n3)cc2C1` [TDI01565, (5-(4-((4-(1H-pyrazol-4-yl)phenyl)amino)-7H-pyrrolo[2,3-d]pyrimidin-2-yl)isoindolin-2-yl)(3,3-difluorocyclobutyl)methanone], the IC50 in assay [1] is 57 nM; in assay [2], over 10000 nM.
For `O=C(Nc1ccnnc1)c1cc2ccc(-c3ncc(Cl)c(Nc4ccc5[nH]ncc5c4)n3)cc2[nH]1` [TDI01844, 6-(4-((1H-indazol-5-yl)amino)-5-chloropyrimidin-2-yl)-N-(pyridazin-4-yl)-1H-indole-2-carboxamide], in that order: 370 nM and over 10000 nM.
Consider `O=C(NC1CC(F)(F)C1)N1Cc2ccc(-c3nccc(Nc4ccc(-c5cn[nH]c5)cc4)n3)cc2C1` [TDI01951, 5-(4-((4-(1H-pyrazol-4-yl)phenyl)amino)pyrimidin-2-yl)-N-(3,3-difluorocyclobutyl) isoindoline-2-carboxamide], for which the IC50 is 27 nM in assay [1] and over 10000 nM in assay [2].
For the molecule `COc1cnc(-c2ccc3cc(C(=O)N(C)CC(F)(F)F)[nH]c3c2)nc1Nc1ccc(-c2cn[nH]c2)cc1` [TDI01868, 6-(4-((4-(1H-pyrazol-4-yl)phenyl)-amino)-5-methoxy-pyrimidin-2-yl)-N-methyl-N-(2,2,2-trifluoroethyl)-1H-indole-2-carboxamide], the IC50 in assay [1] was 32 nM; in assay [2] it was over 10000 nM.
The matching figures for `O=C(c1cc2ccc(-c3nccc(Nc4ccc(-c5cn[nH]c5)cc4)n3)cc2[nH]1)N1CCC(F)(F)C1` [TDI01463, (6-(4-((4-(1H-pyrazol-4-yl)phenyl)amino)pyrimidin-2-yl)-1H-indol-2-yl)(3,3-difluoropyrrolidin-1-yl)methanone]: 11 nM and over 10000 nM.
For `CC1COCCN1C(=O)c1cc2ccc(-c3nccc(Nc4ccc(-c5cn[nH]c5)cc4)n3)cc2[nH]1` (stereo not drawn) [TDI01431, (6-(4-((4-(1H-pyrazol-4-yl)phenyl)amino)pyrimidin-2-yl)-1H-indol-2-yl)(3-methylmorpholino) methanone], the values for the IC50 in assay [1] and in assay [2] were 203 nM and 4340 nM, respectively.
For the molecule `O=C(Nc1ccncc1Cl)c1cc2ccc(-c3nccc(Nc4ccc5[nH]ncc5c4)n3)cc2s1` [TDI01372, 6-(4-((1H-indazol-5-yl)amino)-pyrimidin-2-yl)-N-(3-chloropyridin-4-yl)benzo[b]-thiophene-2-carboxamide], the IC50 is 123 nM in assay [1] and over 10000 nM in assay [2].
For `c1cc(Nc2ccc(-c3cn[nH]c3)nc2)nc(-c2ccc3cc(-c4nccs4)[nH]c3c2)n1` [TDI01940, N-(6-(1H-pyrazol-4-yl)pyridin-3-yl)-2-(2-(thiazol-2-yl)-1H-indol-6-yl)pyrimidin-4-amine], the IC50 in assay [1] is 147 nM; in assay [2], over 10000 nM.
As for `Cn1c(C(=O)N2CC(F)(CF)C2)cc2ccc(-c3nccc(Nc4ccc(-c5cn[nH]c5)cc4)n3)cc21` [TDI01524, (6-(4-((4-(1H-pyrazol-4-yl)phenyl)amino)pyrimidin-2-yl)-1-methyl-1H-indol-2-yl)(3-fluoro-3-(fluoromethyl)azetidin-1-yl)methanone], the IC50 was 30 nM in assay [1] and 1420 nM in assay [2].
The matching figures for `O=C(NC1CCCN(c2ccncc2)C1)c1cc2ccc(-c3nccc(Nc4ccc5[nH]ncc5c4)n3)cc2[nH]1` (stereo not drawn) [TDI01840, 6-(4-((1H-indazol-5-yl)amino)-pyrimidin-2-yl)-N-(1-(pyridin-4-yl)piperidin-3-yl)-1H-indole-2-carboxamide]: 5 nM and 89 nM.

The values above are taken from patent publication US11390609B2, “Rho-associated protein kinase inhibitor, pharmaceutical composition comprising same, and preparation method and use thereof” (BEIJING TIDE PHARMACEUTICAL CO., LTD., priority 2017, dated 2022).
